Four compounds from patent US12209140B2, “Therapeutics for the treatment of glaucoma” (Mayo Foundation for Medical Education and Research, priority 2014, dated 2025) can be followed below.

Molecules are shown by their SMILES. Entries after “also recorded” stand apart in the source; their conditions may differ.

The subject of assay [1] is eyes. Kind of assay: activity in vivo in eyes. An excerpt: The enantiomer of CKLP1 is referred to as “ent-CKLP1”. CKLP1 can be synthesized from levcromakalim while ent-CKLP1 can be synthesized from (+)-cromakalim.
The test system of assay [2] is normotensive C57BL/6 mice. Description: intraocular pressure change in normotensive mice after treatment. It counts as in vivo, mouse. As to conditions: for IOP lowering in the presence of Erk1/2 inhibitor U0126: mice (n=10), CKLP1+LFA+U0126; for combination treatment in mice with CKL/CKLP1 and prostaglandin analog LFA (FIG. 2 values, pressure change): alone or combined with latanoprost free acid, additive effects. How it is done: FIG. 1B is a graph of the change in C57BL/6 mice intraocular pressure following treatment with cromakalim in DMSO or CKLP1 in aqueous carrier. FIG. 2 is a graph of the combination treatment in mice with […]1 and prostaglandin showing additive effects. CKL: -12.77±2.38, […]1: -16.11±2.61, CKLP1+LFA: -26.06±2.98. FIG. 1A is a graph of pressure readings obtained from a pair of human anterior eye segments where one eye was treated with a KATP channel opener prodrug (CKLP1) while the fellow anterior segment was treated with vehicle alone. […] FIG. 1B is a graph of pressure change obtained in normotensive C57BL/6 mice following treatment with parent (CKL) and prodrug (CKLP1). […] FIG. 3 is a graph showing the treatment with various forms of CKL. FIG. 4 is a graph showing the treatment of rabbits (n=5) with CKL-P1 in PBS, optically active isomer. FIG. 5 is a graph showing the treatment with ent-CKLP1(5 mM).

Assay [3] deals with rabbits. Description: treatment of rabbits (intraocular pressure model). It counts as in vivo. How it is done:
FIG. 4 is a graph showing the treatment of rabbits with CKL-P1 in PBS, optically active isomer. FIG. 3 is a graph showing the treatment with various forms of CKL. FIG. 4 is a graph showing the treatment of rabbits (n=5) with CKL-P1 in PBS, optically active isomer. FIG. 5 is a graph showing the treatment with ent-CKLP1(5 mM).

For assay [4], the system named is rat cortical neurons. Description: H2O2 oxidative stress in rat cortical neurons, lactate dehydrogenase assayed. It counts as cell-based. As to conditions: 75 μM H2O2 for 24 hours with and without CKLP1. The source says:
The present invention also provides a CKLP1 composition used to treat neurons; a CKLP1 composition used for neuroprotection; a method of neuroprotection using a CKLP1 composition; a method of treating neurons using a CKLP1 composition; and methods and compositions for the treatment of ocular hypertension, blindness and loss of vision using a CKLP1 composition. The claimed CKLP1 composition provides neuroprotective properties. […] Therefore, CKLP1 and other prodrugs (as disclosed herein) may represent the first in class treatment for glaucoma that can treat the main risk factor (elevated intraocular pressure) and also the sight of damage (optic nerve).

For assay [5], the system named is human anterior eye segments. Description: human anterior segment perfusion organ culture (ex vivo human eye), pressure readings. How it is done: FIG. 1A is a graph of pressure readings obtained from a pair of human anterior eye segments where one eye was treated with a KATP channel opener prodrug (CKLP1) while the fellow anterior segment was treated with vehicle alone. […] FIG. 1B is a graph of pressure change obtained in normotensive C57BL/6 mice following treatment with parent (CKL) and prodrug (CKLP1).

For the compound `CC1(C)Oc2ccc(C#N)cc2[C@@H](N2CCCC2=O)[C@@H]1OP(=O)(O)O` [CKLP1], the “activity in vivo in eyes” value in assay [1] is “active”. Moreover, in assay [2], the “IOP lowering in the presence of Erk1/2 inhibitor U0126” value is reported as “not able to lower pressure”; the “combination treatment in mice with CKL/CKLP1 and prostaglandin analog LFA (FIG. 2 values, pressure change)” value is given as −16.11±2.61. Besides, the “biological activity in normotensive mouse model” value in assay [2] (mouse) is on record as “good activity”. For the same compound, in assay [3], the “activity in rabbit model” value is on record as “good activity”. Besides, in assay [4], the “H2O2 oxidative stress (lactate dehydrogenase levels)” value is listed as “inhibited H2O2 oxidative stress”. In addition, the “pressure in human anterior segment perfusion organ culture” value in assay [5] (CKLP1 2 μM, fellow anterior segment treated with vehicle alone) was “reduction of pressure; also recorded: reduces pressure”. Besides, the “activity in ex vivo human eyeball model” value in assay [5] (ex vivo human eyeball) is on record as “good activity”.

Regarding `O=C(O)CCC/C=C\C[C@@H]1[C@@H](CC[C@@H](O)CCc2ccccc2)[C@H](O)C[C@@H]1O` [LFA, latanoprost free acid, reference compound], in assay [2], the “IOP lowering in the presence of Erk1/2 inhibitor U0126” value is “can lower IOP”.

Take `CC1(C)Oc2ccc(C#N)cc2C(N2CCCC2=O)C1O` (centres unmarked) [CKL, cromakalim, reference compound]: the “combination treatment in mice with CKL/CKLP1 and prostaglandin analog LFA (FIG. 2 values, pressure change)” value in assay [2] is on record as −12.77±2.38.

With `CC1(C)Oc2ccc(C#N)cc2[C@H](N2CCCC2=O)[C@H]1OP(=O)(O)O` [ent-CKLP1], the “activity in vivo in eyes” value in assay [1] is on record as “active”.
